Test results taken from ChEMBL document CHEMBL5634128, “Development of chalcone-like derivatives and their biological and mechanistic investigations as novel influenza nuclear export inhibitors” (Eur J Med Chem, 2023).
Where “and” joins values, the source holds several entries; their conditions need not be identical. Identical values can stand only once. Calls of active or inactive are those of the source. No cut-off for these calls is given here.

Columns and labels:
Influenza A virus [1] = assay: Anti-influenza activity against Influenza A virus A/Goose/Guangdong/SH7/2013 (H5N1) infected in chicken embryo fibroblast at MOI 1 assessed as decrease in ratio of cytoplasmic to nuclear NP level at 10 uM measured after 10 hr post infection by Western blot analysis; type: functional, organism-based
[2] = (§1) Cytotoxicity against chicken embryo fibroblast cells assessed as reduction in cell growth at 50 uM by CCK-8 assay relative to control; type: toxicity, cell-based, Gallus gallus; design: Activity: scale not given: the % may be the effect or the level left; conditions: chicken embryo fibroblast cells, read-out: Activity
Influenza A virus [3] = assay: Anti-influenza activity against Influenza A virus B/Yamagata infected in chicken embryo fibroblast assessed as reduction in viral growth; type: functional, organism-based
Influenza A virus [4] = assay: Anti-influenza activity against Influenza A virus A/Goose/Guangdong/SH7/2013 (H5N1) infected in chicken embryo fibroblast at MOI 1 assessed as distribution of NP in nucleus at 10 uM measured after 10 hr post infection by DAPI staining based assay; type: functional, organism-based
[5] = Cytotoxicity against chicken embryo fibroblast cells assessed as reduction in cell growth by CCK-8; type: toxicity, cell-based, Gallus gallus
Influenza A virus [6] = assay: Anti-influenza activity against Influenza A virus H5N1 infected in chicken embryo fibroblast assessed as reduction in viral growth; type: functional, organism-based
[7] = target: Exportin-1 (Homo sapiens) (UniProt O14980); assay: Inhibition of CRM1-mediated nuclear export in human A549 cells assessed as distribution of GFP-tagged AID in nucleus at 20 uM administered for 12 hrs and measured after 24 hrs by fluorescence microscopy analysis; type: cell-based; conditions: time 36.0 hrs
Chain of Exportin-1 (Homo sapiens) (O14980 whole entry): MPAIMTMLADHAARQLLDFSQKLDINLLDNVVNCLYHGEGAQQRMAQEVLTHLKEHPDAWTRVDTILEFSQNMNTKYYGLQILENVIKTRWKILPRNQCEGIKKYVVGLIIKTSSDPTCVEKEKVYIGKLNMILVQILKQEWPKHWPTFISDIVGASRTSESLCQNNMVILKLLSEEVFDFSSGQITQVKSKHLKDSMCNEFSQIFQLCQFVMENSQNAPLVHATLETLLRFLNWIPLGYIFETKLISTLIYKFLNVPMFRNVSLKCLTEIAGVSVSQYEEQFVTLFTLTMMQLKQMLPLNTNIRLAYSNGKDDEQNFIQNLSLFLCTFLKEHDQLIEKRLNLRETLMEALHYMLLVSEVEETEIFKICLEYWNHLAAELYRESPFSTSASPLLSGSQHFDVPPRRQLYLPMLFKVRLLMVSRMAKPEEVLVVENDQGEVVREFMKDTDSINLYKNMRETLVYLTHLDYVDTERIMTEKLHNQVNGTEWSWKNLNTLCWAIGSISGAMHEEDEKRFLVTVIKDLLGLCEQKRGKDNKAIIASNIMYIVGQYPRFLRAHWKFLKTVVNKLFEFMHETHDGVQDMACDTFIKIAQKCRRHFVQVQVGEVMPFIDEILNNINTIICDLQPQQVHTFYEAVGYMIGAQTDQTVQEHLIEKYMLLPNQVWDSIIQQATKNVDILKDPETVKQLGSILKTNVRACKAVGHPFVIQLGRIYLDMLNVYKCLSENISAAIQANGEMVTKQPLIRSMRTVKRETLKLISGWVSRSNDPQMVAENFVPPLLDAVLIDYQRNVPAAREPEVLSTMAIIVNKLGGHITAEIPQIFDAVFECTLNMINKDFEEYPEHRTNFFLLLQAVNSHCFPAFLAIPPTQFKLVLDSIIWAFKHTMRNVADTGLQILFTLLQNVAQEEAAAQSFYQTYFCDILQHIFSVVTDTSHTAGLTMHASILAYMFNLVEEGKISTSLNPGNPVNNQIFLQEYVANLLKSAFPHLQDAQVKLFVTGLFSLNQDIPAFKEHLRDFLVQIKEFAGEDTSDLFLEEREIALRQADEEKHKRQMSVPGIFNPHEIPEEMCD

[8] = Binding affinity to influenza A virus NS2 assessed as dissociation constant by SPR analysis
Influenza A virus [9] = assay: Anti-influenza activity against Influenza A virus A/PR/8/34 infected in chicken embryo fibroblast assessed as reduction in viral growth; type: functional, organism-based; conditions: A/PR/8/34, Fibroblast
Influenza A virus [10] = assay: Anti-influenza activity against Influenza A virus A/Goose/Guangdong/SH7/2013 (H5N1) infected in chicken embryo fibroblast at MOI 1 assessed as reduction in NP expression in nucleus at 10 uM measured after 10 hr post infection by Western blot analysis; type: functional, organism-based
Influenza A virus [11] = assay: Anti-influenza activity against Influenza A virus A/Goose/Guangdong/SH7/2013 (H5N1) infected in chicken embryo fibroblast assessed as inhibition of virus-induced cytopathic effect; type: functional
Influenza A virus [12] = assay: Anti-influenza activity against Influenza A virus A/Goose/Guangdong/SH7/2013 (H5N1) infected in chicken embryo fibroblast at MOI 1 assessed as reduction in NP expression in cytoplasm at 10 uM measured after 10 hr post infection by Western blot analysis; type: functional, organism-based
Influenza A virus [13] = assay: Anti-influenza activity against Influenza A virus B/Victoria infected in chicken embryo fibroblast assessed as reduction in viral growth; type: functional, organism-based
[14] = target: Exportin-1 (Homo sapiens) (UniProt O14980); assay: Inhibition of CRM1-mediated nuclear export in human A549 cells assessed as distribution of GFP-tagged AID in cytoplasm at 20 uM administered for 12 hrs and measured after 24 hrs by fluorescence microscopy analysis; type: cell-based
Influenza A virus [15] = assay: Anti-influenza activity against Influenza A virus pdm09 infected in chicken embryo fibroblast assessed as reduction in viral growth; type: functional, organism-based
Influenza A virus [16] = assay: Anti-influenza activity against Influenza A virus A/Brisbane/10/2007 infected in chicken embryo fibroblast assessed as reduction in viral growth; type: functional, organism-based; conditions: A/Brisbane/10/2007, Fibroblast
[17] = target: Single-stranded DNA cytosine deaminase (Homo sapiens) (UniProt Q9GZX7); assay: Induction of GFP-tagged AID degradation in human A549 cells at 20 uM; type: cell-based
Chain of Single-stranded DNA cytosine deaminase (Homo sapiens) (Q9GZX7 whole entry): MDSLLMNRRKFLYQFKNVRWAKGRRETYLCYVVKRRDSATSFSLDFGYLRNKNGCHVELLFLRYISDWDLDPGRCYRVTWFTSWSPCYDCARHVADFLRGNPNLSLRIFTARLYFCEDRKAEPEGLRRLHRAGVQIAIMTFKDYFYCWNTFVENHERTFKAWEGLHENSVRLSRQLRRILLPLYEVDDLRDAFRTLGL

Influenza A virus [18] = assay: Anti-influenza activity against Influenza A virus H5N8 infected in chicken embryo fibroblast assessed as reduction in viral growth; type: functional, organism-based
Nucleoprotein = Nucleoprotein (Influenza A virus (strain A/Wilson-Smith/1933 H1N1), UniProt P15682); assay: Binding affinity to influenza A virus Nucleoprotein assessed as dissociation constant by SPR analysis
Chain of Nucleoprotein (P15682 whole entry): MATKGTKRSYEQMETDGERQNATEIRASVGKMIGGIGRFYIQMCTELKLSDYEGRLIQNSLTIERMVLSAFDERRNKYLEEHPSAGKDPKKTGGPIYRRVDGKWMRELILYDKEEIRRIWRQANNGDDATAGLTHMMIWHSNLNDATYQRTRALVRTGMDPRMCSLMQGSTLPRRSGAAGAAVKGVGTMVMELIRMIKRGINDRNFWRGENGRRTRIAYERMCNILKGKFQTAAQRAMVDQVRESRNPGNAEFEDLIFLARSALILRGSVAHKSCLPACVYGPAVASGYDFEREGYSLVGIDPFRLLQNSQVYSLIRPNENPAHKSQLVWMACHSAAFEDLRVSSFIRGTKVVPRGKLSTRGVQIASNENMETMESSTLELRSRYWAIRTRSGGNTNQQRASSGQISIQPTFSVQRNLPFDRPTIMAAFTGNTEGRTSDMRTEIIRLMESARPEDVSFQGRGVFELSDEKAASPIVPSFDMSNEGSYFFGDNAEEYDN

[19] = Binding affinity to influenza A virus M1 assessed as dissociation constant by SPR analysis
Fibroblast = assay: as §1; type: toxicity, cell-based, Gallus gallus; design: Activity: scale not given: the % may be the effect or the level left; conditions: fibroblast, 50 µM

SMILES	percent cell viability relative to control at 50 µM [2]	EC50 (Influenza A virus [3])	CC50 [5]	EC50 (Influenza A virus [6])	EC50 (Influenza A virus [9])	inhibition (INH) (Influenza A virus [11])	EC50 (Influenza A virus [13])	EC50 (Influenza A virus [15])	EC50 (Influenza A virus [16])	EC50 (Influenza A virus [18])	Activity (Fibroblast)	also measured
COc1cccc(OC)c1/C=C/C(=O)/C=C/c1ccc(N2CCOCC2)cc1	102%	4820 nM	> 100 µM	14.9 µM	7.31 µM	96.62%	3130 nM	4.56 µM	3690 nM	9.6 µM		Activity (Influenza A virus [1]): Active; Activity (Influenza A virus [4]): Active; inhibition [7]: inactive; Kd [8]: Not Active; Activity (Influenza A virus [10]): Active; Activity (Influenza A virus [12]): Active; inhibition [14]: inactive; Activity [17]: Active; Kd (Nucleoprotein): 239 nM; Kd [19]: Not Active
CCC(CC)O[C@@H]1C=C(C(=O)O)C[C@H](N)[C@H]1NC(C)=O [OSELTAMIVIR CARBOXYLATE]	100%	980 nM	> 100 µM	5.7 µM	3.08 µM	98.5% and 97.3%	2430 nM	> 100 µM	1080 nM	6.49 µM	105.08%	
COc1cccc(OC)c1/C=C/C(=O)/C=C/c1ccc(-c2ccncc2)cc1						26.05%					153.71%	
